Experimental data: patent publication US20240173296A1, “PHARMACEUTICAL COMPOSITION OF (S)-KETOROLAC AND PREPARATION METHOD THEREFOR” (NANJING HERON PHARMACEUTICAL SCIENCE AND TECHNOLOGY CO., …, priority 2021, published 2024)
Converted amounts (≈) assume the structure as drawn. Where two headings read alike, the source gives them in different places.

How the values were obtained:
[1] = standard animal model of analgesic activity; cited from earlier work
[2] = Pharmacokinetic testing after single intravenous administration in beagle dogs; format: in vivo; details: for AUC(0-inf) / AUC(0-t) / half-life / MRT last / clearance / Vd: dog, mean ± standard deviation; for AUC(0-inf) / AUC(0-t) / half-life / MRT last: plasma analyte = label; for MRT last: read-out: MRT0-t; for clearance / Vd: plasma; for Vd: read-out: Vss
Experimental: (§1) Representative batches of lyophilized powder injection of (S)-ketorolac described in the present application were selected to examine the drug metabolism in vivo of beagle dogs and cynomolgus monkeys. The mode of administration was single intravenous administration. The concentration of (S)-ketorolac and (R)-ketorolac in plasma samples was measured by LC-MS/MS, and the blood drug concentration-time curve was plotted to obtain the main pharmacokinetic parameters and examine the chiral transformation of (S)-ketorolac and (R)-ketorolac in animals.

[3] = Optical stability of (S)-ketorolac in phosphate buffer solutions with different pH values (Test Example 2); format: physicochemical
Experimental: (§2) Phosphate buffer solutions with a pH range of 6.5 to 7.8 were prepared with reference to Chinese Pharmacopoeia (2020 edition). The appropriate amount of (S)-ketorolac (free acid) was added to each phosphate buffer to prepare mixtures of about 20 mg/ml. Each solution was placed in an air bath shaker and shaken at 25° C. for 24 hours, during which the dissolution of (S)-ketorolac in each mixture was observed. The remaining samples were reserved at 25° C. and 40° C., and the formation of isomers was detected after 2 days and 30 days, as shown in Table 2.

[4] = Solubility of (S)-ketorolac in solvents; format: physicochemical
in vivo = details: cynomolgus monkey, iv
Experimental: as §1

[5] = Solubility of (S)-ketorolac in phosphate buffer solutions with different pH (Test Example 2); format: physicochemical; details: 25 °C, aqueous buffer, thermodynamic from solid, read-out: Saturation solubility at 25° C.
Experimental: as §2

[6] = single intravenous (S)-ketorolac 0.16 mg/kg
[7] = single intravenous (S)-ketorolac 3.2 mg/kg

Compound: O=C(c1ccccc1)c1ccc2n1CCC2C(=O)O (racemic) [ketorolac tromethamine]
- analgesic activity relative to that of Aspirin [1]: 800 times

Compound: O=C(c1ccccc1)c1ccc2n1CC[C@H]2C(=O)O [(R)-ketorolac]
- AUC(0-inf) [2, 6]: 79.2 ± 57 ng·h/mL
- AUC(0-t) [2, 6]: 11.7 ± 1.21 ng·h/mL
- half-life [2, 6]: 1360 ± 1010 min
- MRT last [2, 6]: 3.07 ± 0.144 h
- AUC(0-t) [2, 7]: 724 ± 259 ng·h/mL
- MRT last [2, 7]: 3.52 ± 0.33 h
- Chiral transformation rate = (AUC0-t)R/[(AUC0-t)S + (AUC0-t)R] × 100 [2, 6]: 2.10%
- Chiral transformation rate = (AUC0-t)R/[(AUC0-t)S + (AUC0-t)R] × 100 [2, 7]: 1.71%

Compound: O=C(c1ccccc1)c1ccc2n1CC[C@@H]2C(=O)O [(S)-ketorolac]
- Isomer purity determined ([3]; phosphate buffer pH 6.5, 25° C., Day 2): 0.20%
- Isomer purity determined ([3]; phosphate buffer pH 6.5, 25° C., Day 30): 3.43%
- Isomer purity determined ([3]; phosphate buffer pH 6.5, 40° C., Day 30): 27.90%
- Isomer purity determined ([3]; phosphate buffer pH 6.8, 25° C., Day 2): 0.21%
- Isomer purity determined ([3]; phosphate buffer pH 6.8, 25° C., Day 30): 3.22%
- Isomer purity determined ([3]; phosphate buffer pH 6.8, 40° C., Day 30): 28.14%
- Isomer purity determined ([3]; phosphate buffer pH 7.0, 25° C., Day 2): 0.22%
- Isomer purity determined ([3]; phosphate buffer pH 7.0, 25° C., Day 30): 3.20%
- Isomer purity determined ([3]; phosphate buffer pH 7.0, 40° C., Day 30): 27.11%
- Isomer purity determined ([3]; phosphate buffer pH 7.2, 25° C., Day 2): 0.22%
- Isomer purity determined ([3]; phosphate buffer pH 7.2, 25° C., Day 30): 3.34%
- Isomer purity determined ([3]; phosphate buffer pH 7.2, 40° C., Day 30): 27.71%
- Isomer purity determined ([3]; phosphate buffer pH 7.4, 25° C., Day 2): 0.21%
- Isomer purity determined ([3]; phosphate buffer pH 7.4, 25° C., Day 30): 3.31%
- Isomer purity determined ([3]; phosphate buffer pH 7.4, 40° C., Day 30): 23.91%
- Isomer purity determined ([3]; phosphate buffer pH 7.6, 25° C., Day 2): 0.22%
- Isomer purity determined ([3]; phosphate buffer pH 7.6, 25° C., Day 30): 3.43%
- Isomer purity determined ([3]; phosphate buffer pH 7.6, 40° C., Day 30): 24.35%
- Isomer purity determined ([3]; phosphate buffer pH 7.8, 25° C., Day 2): 0.51%
- Isomer purity determined ([3]; phosphate buffer pH 7.8, 25° C., Day 30): 4.92%
- Isomer purity determined ([3]; phosphate buffer pH 7.8, 40° C., Day 30): 21.28%
- optical purity of (S)-ketorolac ([3]; samples in the solution state (phosphate buffer), stored at 25° C. for one month): greater than or equal to 95%
- clearance [2, 6]: 3.22 mL/min/kg
- Vd [2, 6]: 1.29 ± 0.432 L/kg
- clearance [2, 7]: 0.472 mL/min/kg
- Vd [2, 7]: 0.391 L/kg
- AUC(0-inf) [2, 6]: 950 ± 385 ng·h/mL
- AUC(0-t) [2, 6]: 545 ± 147 ng·h/mL
- half-life [2, 6]: 428 ± 176 min
- MRT last [2, 6]: 1.61 ± 0.4 h
- AUC(0-inf) [2, 7]: 117000 ± 25900 ng·h/mL
- AUC(0-t) [2, 7]: 41600 ± 3540 ng·h/mL
- half-life [2, 7]: 618 ± 131 min
- MRT last [2, 7]: 2.5 ± 0.149 h
- solubility in anhydrous ethanol ([4]; anhydrous ethanol): sparingly soluble
- solubility in dichloromethane ([4]; dichloromethane): slightly soluble
- solubility in dimethylformamide ([4]; dimethylformamide): freely soluble
- solubility in methanol ([4]; methanol): soluble
- solubility in water ([4]; water): nearly or completely insoluble
- Vd (in vivo; 0.24 mg/kg): 0.224 ± 0.0778 L/kg
- clearance (in vivo; 0.24 mg/kg): 1.77 mL/min/kg
- Vd (in vivo; 2.4 mg/kg): 0.18 ± 0.0381 L/kg
- clearance (in vivo; 2.4 mg/kg): 1.7 mL/min/kg
- solubility at 24 h ([5]; phosphate buffer solution pH 6.5): 1860 µg/mL (≈ 7.29 mM)
- solubility at 24 h ([5]; phosphate buffer solution pH 6.8): 3030 µg/mL (≈ 11.9 mM)
- solubility at 24 h ([5]; phosphate buffer solution pH 7.0): 4090 µg/mL (≈ 16 mM)
- solubility at 24 h ([5]; phosphate buffer solution pH 7.2): 4520 µg/mL (≈ 17.7 mM)
- solubility at 24 h ([5]; phosphate buffer solution pH 7.4): 4720 µg/mL (≈ 18.5 mM)
- solubility at 24 h ([5]; phosphate buffer solution pH 7.6): 5220 µg/mL (≈ 20.4 mM)
- solubility at 24 h ([5]; phosphate buffer solution pH 7.8): ≥ 24200 µg/mL
